Columns and labels:
Settings in all cases: antibiotic alone
[1] = system: E. cloacae overproducing chromosomally-mediated class C β-lactamase; assay: MIC of third-generation cephalosporins alone and with compounds 4 or 9 (Table 3); type: cell-based, Enterobacter cloacae
Source text: (§1) Antimicrobial activity was investigated quantitatively to determine the minimum inhibitory concentrations (MICs) of the β-lactam/inhibitor combination necessary to inhibit the bacterial growth (Table 3). The MICs of β-lactams alone against the strains corresponded to a high level of resistance according to Clinical and Laboratory Standards Institute (CLSI) standards. (Clinical and Laboratory Standards Institute, Performance standards for antimicrobial susceptibility testing, 20th Informational Supplement, M100-S20 2010) The compounds had no measurable antibiotic activity when used alone.
(§2) Susceptibility testing was performed and interpreted following the guidelines of CLSI. (Clinical and Laboratory Standards Institute, Performance standards for antimicrobial susceptibility testing, 20th Informational Supplement, M100-S20 2010) The compounds were dissolved in 50% DMSO, and dilutions were performed using Muller-Hinton medium. An adequate final concentration was obtained to determine the minimum inhibitory concentrations (MICs). The concentration of DMSO was maintained below 5%. The inhibitors were tested for synergy with the third-generation β-lactams ceftazidime and cefotaxime against several clinical bacteria. […] Each value reported reflects the average of three independent experiments. […] A Klebsiella pneumoniae isolate produced the inducible plasmid-mediated class C enzyme DHA-1. The Friedman's test and the Wilcoxon signed rank test were used to compare MIC values. Statistical significance was established at p<0.05.

[2] = system: E. coli overproducing chromosomally-mediated class C β-lactamase; assay: as above; type: cell-based, Escherichia coli
Source text: as §1, §2

[3] = system: C. freundii 101, AmpC-overproducing; assay: MIC of third-generation cephalosporins alone and with compounds (Table 6); type: cell-based, Citrobacter freundii
Experimental: (§3) The anti-resistance activity of inhibitors was investigated by the determination of the minimum inhibitory concentrations (MICs) of the β-lactam/inhibitor combination necessary to inhibit the growth of clinically-isolated bacteria resistant to third-generation cephalosporins via expression of class A or class C β-lactamases (Table 6).
(§4) Susceptibility testing was performed and interpreted following the guidelines of CLSI. (Clinical and Laboratory Standards Institute, Performance standards for antimicrobial susceptibility testing, 20th Informational Supplement, M100-S20 2010) The compounds were dissolved in 50% DMSO, and dilutions were performed using Muller-Hinton medium. An adequate final concentration was obtained to determine the minimum inhibitory concentrations (MICs). The concentration of DMSO was maintained below 5%. The inhibitors were tested for synergy with the third-generation β-lactams ceftazidime and cefotaxime against several clinical bacteria. The ratio of β-lactams to inhibitors was 1:4. Each value reported reflects the average of three independent experiments. […] The Friedman's test and the Wilcoxon signed rank test were used to compare MIC values. Statistical significance was established at p<0.05.
(§5) Table 6. MICs (μg/ml) of third-generation cephalosporins alone and in association with the compounds (ratio 1/4) for clinical bacteria. CTX, cefotaxime and CAZ, ceftazidime. ^1, AmpC-overproducing bacteria; ^2, CTX-M-14-producing E. coli; ^3, KPC-2-producing K. pneumoniae; ^4, OXA-48-producing K. pneumoniae; ^5, NDM-1-producing C. freundii.

[4] = system: C. freundii, AmpC-overproducing; assay: as above; type: cell-based, Citrobacter freundii
Experimental: as §3, §4, §5

[5] = system: NDM-1-producing C. freundii; assay: as above; type: cell-based, Citrobacter freundii
Experimental: as §3, §4, §5

[6] = system: P. aeruginosa, AmpC-overproducing; assay: as above; type: cell-based, Pseudomonas aeruginosa
Experimental: as §3, §4
Table 6. MICs (μg/ml) of third-generation cephalosporins alone and in association with the compounds (ratio 1/4) for clinical bacteria. […]

[7] = system: K. pneumoniae, AmpC-overproducing; assay: as above; type: cell-based, Klebsiella pneumoniae
Experimental: as §3, §4, §5

[8] = system: OXA-48-producing K. pneumoniae; assay: as above; type: cell-based, Klebsiella pneumoniae
Experimental: as §3, §4, §5

[9] = system: CTX-M-14-producing E. coli; assay: as above; type: cell-based, Escherichia coli
Experimental: as §3, §4, §5

[10] = system: E. coli 142, AmpC-overproducing; assay: as above; type: cell-based, Escherichia coli
Experimental: as §3, §4, §5

[11] = system: E. coli 144, AmpC-overproducing; assay: as above; type: cell-based, Escherichia coli
Experimental: as §3, §4, §5

[12] = system: E. coli 145, AmpC-overproducing; assay: as above; type: cell-based, Escherichia coli
Experimental: as §3, §4, §5

[13] = system: E. coli 146, AmpC-overproducing; assay: as above; type: cell-based, Escherichia coli
Experimental: as §3, §4, §5

[14] = system: E. coli R1, AmpC-overproducing; assay: as above; type: cell-based, Escherichia coli
Experimental: as §3, §4, §5

[15] = system: E. coli, AmpC-overproducing; assay: as above; type: cell-based, Escherichia coli
Experimental: as §3, §4, §5

CO/N=C(\C(=O)N[C@@H]1C(=O)N2C(C(=O)O)=C(COC(C)=O)CS[C@H]12)c1csc(N)n1 [Cefotaxime] was tested. Which “MIC, cephalosporin alone” value [1] did it give?
The value was 64 µg/mL.

What about the “MIC, cephalosporin alone” value [2] of the same compound?
Its value is 8 µg/mL.

What about the “MIC, cephalosporin alone” value [3] of the same compound?
Its value is 64 µg/mL.

And the “MIC, cephalosporin alone” value [4]?
Its value is 16 µg/mL.

What about the “MIC, cephalosporin alone” value [5] of the same compound?
Its value is 512 µg/mL.

And the “MIC, cephalosporin alone” value [6]?
The value was >128 µg/mL.

And the “MIC, cephalosporin alone” value [7]?
Its value is 8 µg/mL.

What about the “MIC, cephalosporin alone” value [8] of the same compound?
The value was 256 µg/mL.

What about the “MIC, cephalosporin alone” value [9] of the same compound?
Its value is 256 µg/mL.

What about the “MIC, cephalosporin alone” value [10] of the same compound?
Its value is 4 µg/mL.

And the “MIC, cephalosporin alone” value [11]?
The value was 16 µg/mL.

And the “MIC, cephalosporin alone” value [12]?
Its value is 16 µg/mL.

And the “MIC, cephalosporin alone” value [13]?
The value was 8 µg/mL.

What about the “MIC, cephalosporin alone” value [14] of the same compound?
The value was 4 µg/mL.

What about the “MIC, cephalosporin alone” value [15] of the same compound?
Its value is 8 µg/mL.

Reference: patent US9371337B2, “β-lactamase inhibitors” (The Regents of the University of California, priority 2011, dated 2016)
